Values quoted from earlier work as cited in patent publication US20120321587A1, “COMPOSITIONS AND METHODS OF USE PERTAINING TO INSECTICIDE” (priority 2009, published 2012).

System: aphids
Settings: nymphs and adults

In the case of `CCCCCCCCCCCCOS(=O)(=O)[O-].[Na+]` [sodium lauryl sulfate], the “efficacy in treating aphids” value is given as “limited efficacy”.
For `CCCCCCCCOC(=O)CC(C(=O)OCCCCCCCC)S(=O)(=O)O.[Na]` (centres unmarked) [sodium dioctyl sulfosuccinate], the “efficacy in treating aphids” value is listed as “primary compound responsible for the observed insecticidal activity”.
